Results taken from ChEMBL document CHEMBL1133524 (J Med Chem, 2000).
Values after ≈ are worked out from the molar mass of the structure shown. Active and inactive are the calls of the source. No cut-off for these calls is given here.

Columns and labels:
KB [1] = assay: Tested in vitro for cytotoxic activity against epidermoid carcinoma of the nasopharynx(KB) cell line; assay type: functional, Homo sapiens
MCF7 = assay: Tested in vitro for cytotoxic activity against breast cancer (MCF-7) cell line; assay type: functional, Homo sapiens
Tubulin = Tubulin (Bos taurus, UniProt Q6B856+Q862L2+Q862F3); assay: Inhibition of bovine tubulin polymerization; assay type: functional
HCT-8 [2] = assay: Tested in vitro for cytotoxic activity against ileocecal carcinoma (HCT-8) cell line; assay type: functional, Homo sapiens
HOS [3] = assay: Tested in vitro for cytotoxic activity against bone(HOS) cell line; assay type: functional, Homo sapiens
A549 = assay type: functional, Homo sapiens
Description: Tested in vitro for cytotoxic activity against lung carcinoma (A-549) cell line

SK-MEL-2 [4] = assay: Tested in vitro for cytotoxic activity against melanoma (SKMEL-2) cell line; assay type: functional, Homo sapiens
PC-3 [5] = assay: Tested in vitro for cytotoxic activity against prostate cancer (PC3) cell line; assay type: functional, Homo sapiens
KB [6] = assay: Tested in vitro for cytotoxic activity against P-glycoprotein-expressing epidermoid carcinoma of the nasopharynx(KB-VIN) cell line; assay type: functional, Homo sapiens
U-87 MG [7] = assay: Tested in vitro for cytotoxic activity against glioblastoma (U-87-MG) cell line; NA means Not active; assay type: functional, cell-based; details: Homo sapiens; U-87MG ATCC
U-87 MG [8] = assay: Tested in vitro for cytotoxic activity against glioblastoma (U-87-MG) cell line; assay type: functional, Homo sapiens, U-87MG ATCC
1A9 [9] = assay: Tested in vitro for cytotoxic activity against Human ovarian cancer (IA9) cell line; assay type: functional
Tubulin (Bos taurus) = Tubulin (Bos taurus) (UniProt Q6B856+Q862L2+Q862F3); assay: Tested for inhibition of radioligand colchicine binding to bovine tubulin; assay type: protein assay; details: concentration not given here
1A9 [10] = assay: Tested in vitro for cytotoxic activity against Human ovarian cancer (IA9) cell line; NA means Not active; assay type: functional, cell-based
HOS [11] = assay: Tested in vitro for cytotoxic activity against bone(HOS) cell line; NA means Not active; assay type: functional, cell-based; details: Homo sapiens
1A9 [12] = assay: Tested in vitro for cytotoxic activity against human ovarian cancer (IA9)cell line; assay type: functional
SK-MEL-2 [13] = assay: Tested in vitro for cytotoxic activity against melanoma (SKMEL-2) cell line; NA means Not active; assay type: functional, cell-based; details: Homo sapiens
HCT-8 [14] = assay: Tested in vitro for cytotoxic activity against ileocecal carcinoma (HCT-8) cell line; NA means Not active; assay type: functional, cell-based; details: Homo sapiens
PC-3 [15] = assay: Tested in vitro for cytotoxic activity against prostate cancer (PC3) cell line; NA means Not active; assay type: functional, cell-based; details: Homo sapiens
KB [16] = assay: Tested in vitro for cytotoxic activity against epidermoid carcinoma of the nasopharynx(KB) cell line; NA means Not active; assay type: functional, cell-based; details: Homo sapiens
U-87 MG [17] = assay: Tested in vitro for cytotoxic activity against glioblastoma (U-87-MG) cell line;NA means not active.; assay type: functional, cell-based; details: Homo sapiens; U-87MG ATCC

Row | SMILES | ED50 (KB [1]) [µg/mL] | ED50 (MCF7) [µg/mL] | IC50 (Tubulin) [µM] | ED50 (HCT-8 [2]) [µg/mL] | ED50 (HOS [3]) [µg/mL] | ED50 (A549) [µg/mL] | ED50 (SK-MEL-2 [4]) [µg/mL] | ED50 (PC-3 [5]) [µg/mL] | ED50 (KB [6]) [µg/mL] | ED50 (U-87 MG [7]) | ED50 (U-87 MG [8]) [µg/mL] | ED50 (1A9 [9]) [µg/mL] | other results
1 | COc1ccc(C2NC(=O)c3ccccc3N2)c(OC)c1 (centres undefined) | > 20 | > 20 | > 40 | > 20 | > 20 | > 20 | > 20 | > 20 | 7.6 (≈ 26.7 µM) | inactive |  |  | Inhibition (KB [1]): 43%; Inhibition (HOS [3]): 40%
2 | COc1cccc(-c2nc(O)c3cc(N4CCCCC4)ccc3n2)c1 | 10 (≈ 29.8 µM) | 8.5 (≈ 25.3 µM) |  | 4.3 (≈ 12.8 µM) |  | 2.8 (≈ 8.35 µM) | 4.5 (≈ 13.4 µM) | 10 (≈ 29.8 µM) | 0.6 (≈ 1.79 µM) |  | 9 (≈ 26.8 µM) | 0.9 (≈ 2.68 µM) | 
3 | COc1cccc(-c2nc(O)c3cc(N4CCCC4)ccc3n2)c1 | 0.23 (≈ 0.716 µM) | 0.22 (≈ 0.685 µM) |  | 0.06 (≈ 0.187 µM) | 7 (≈ 21.8 µM) | 0.5 (≈ 1.56 µM) | 0.09 (≈ 0.28 µM) | 15 (≈ 46.7 µM) | 0.1 (≈ 0.311 µM) |  |  | 0.09 (≈ 0.28 µM) | inhibition (Tubulin (Bos taurus)): 24%
4 | COc1cccc(-c2nc(O)c3cc(F)ccc3n2)c1 | > 20 | > 20 |  | > 20 |  |  | > 20 | 20 (≈ 74 µM) | 18 (≈ 66.6 µM) |  | > 20 |  | ED50 (1A9 [10]): inactive; ED50 (HOS [11]): inactive
5 | COc1ccccc1-c1nc(O)c2ccccc2n1 | > 20 | > 20 |  |  | > 20 | > 20 |  |  | > 20 | inactive |  |  | ED50 (1A9 [12]): > 20 µg/mL; ED50 (SK-MEL-2 [13]): inactive; ED50 (HCT-8 [14]): inactive; ED50 (PC-3 [15]): inactive
6 | COc1cc(OC)cc(C2NC(=O)c3ccccc3N2)c1 (centres undefined) | 4.7 (≈ 16.5 µM) | > 20 | 12 | 3 (≈ 10.6 µM) | > 20 | 5 (≈ 17.6 µM) | 4.4 (≈ 15.5 µM) | > 20 | 1.6 (≈ 5.63 µM) |  | > 20 |  | 
7 | COc1cccc(-c2nc(O)c3cc(N4CCOCC4)ccc3n2)c1 | 8.2 (≈ 24.3 µM) | 4.5 (≈ 13.3 µM) |  |  |  |  | 4.8 (≈ 14.2 µM) |  | 3.7 (≈ 11 µM) |  | 20 (≈ 59.3 µM) | 3.8 (≈ 11.3 µM) | 
8 | COc1cccc(-c2nc(O)c3cc(OC)ccc3n2)c1 |  | 8 (≈ 28.3 µM) |  |  | > 20 |  | > 20 | > 20 | 3.5 (≈ 12.4 µM) |  | > 20 | 3.4 (≈ 12 µM) | 
9 | COc1cccc(C2NC(=O)c3cc(Cl)ccc3N2)c1 (centres undefined) | 0.95 (≈ 3.29 µM) | 16 (≈ 55.4 µM) | 1.5 | 0.48 (≈ 1.66 µM) | 20 (≈ 69.3 µM) | 0.6 (≈ 2.08 µM) | < 2.5 | 2.5 (≈ 8.66 µM) | 0.42 (≈ 1.45 µM) |  | > 20 | 0.27 (≈ 0.935 µM) | 
10 | COc1ccc(OC)c(C2NC(=O)c3ccccc3N2)c1 (centres undefined) | > 20 | > 20 | 32 | > 20 | > 20 | > 20 | > 20 | > 20 | 8.4 (≈ 29.5 µM) |  | > 20 | 10 (≈ 35.2 µM) | Inhibition (KB [1]): 40%; Inhibition (HOS [3]): 40%
11 | COc1cccc(-c2nc(O)c3cc(N4CCC(C)CC4)ccc3n2)c1 |  | 10 (≈ 28.6 µM) |  | 4 (≈ 11.4 µM) |  | 6 (≈ 17.2 µM) | 7.5 (≈ 21.5 µM) |  | 2.5 (≈ 7.15 µM) |  |  | 0.8 (≈ 2.29 µM) | 
12 | COc1cccc(-c2nc(O)c3cc4c(cc3n2)OCO4)c1 | > 20 | > 20 |  |  | > 20 | > 20 | > 20 | > 20 | > 20 | inactive |  | > 20 | ED50 (HCT-8 [14]): inactive
13 | COc1cccc(-c2nc(O)c3cc(OC)c(OC)cc3n2)c1 |  | 12 (≈ 38.4 µM) |  | > 20 | > 20 | > 20 | 18 (≈ 57.6 µM) | 15 (≈ 48 µM) |  |  | > 20 |  | 
14 | COc1cc(OC)cc(-c2nc(O)c3ccccc3n2)c1 |  | > 20 |  |  |  | > 20 | > 20 | > 20 | > 20 | inactive |  |  | ED50 (1A9 [10]): inactive; ED50 (KB [16]): inactive; ED50 (HOS [11]): inactive; ED50 (HCT-8 [14]): inactive
15 | COc1cccc(-c2nc(O)c3ccccc3n2)c1OC |  | 20 (≈ 70.8 µM) |  |  |  | > 20 |  | 20 (≈ 70.8 µM) | > 20 | inactive |  |  | ED50 (1A9 [10]): inactive; ED50 (KB [16]): inactive; ED50 (HOS [11]): inactive; ED50 (SK-MEL-2 [13]): inactive; ED50 (HCT-8 [14]): inactive
16 | COc1cccc(C2NC(=O)c3ccccc3N2)c1OC (centres undefined) | > 20 | > 20 | > 40 | > 20 | > 20 | > 20 | < 20 | > 20 | 8.6 (≈ 30.2 µM) |  |  |  | Inhibition (KB [1]): 41%; ED50 (U-87 MG [17]): inactive; Inhibition (PC-3 [5]): 20%
17 | COc1ccc(-c2nc(O)c3ccccc3n2)cc1OC | > 20 | > 20 |  | > 20 | > 20 | > 20 | > 20 | > 20 | > 20 | inactive |  | > 20 | 
18 | COc1ccccc1C1NC(=O)c2ccccc2N1 (centres undefined) | > 20 | > 20 | > 40 | > 20 | > 20 | > 20 | < 20 | > 20 | 10.2 (≈ 40.1 µM) | inactive |  |  | Inhibition (KB [1]): 32%; Inhibition (PC-3 [5]): 30%
19 | COc1cccc(-c2nc(O)c3cc(Cl)ccc3n2)c1 |  |  |  | 6 (≈ 20.9 µM) | 17 (≈ 59.3 µM) | 3.2 (≈ 11.2 µM) | 4.8 (≈ 16.7 µM) | 4.5 (≈ 15.7 µM) | 6.5 (≈ 22.7 µM) |  | 10 (≈ 34.9 µM) | > 20 | 
20 | COc1cccc(-c2nc(O)c3ccccc3n2)c1 |  | 26 (≈ 103 µM) |  | > 20 | > 20 | > 20 | > 20 | > 20 | > 20 | inactive |  | > 20 | ED50 (KB [16]): inactive
21 | COc1cccc(C2NC(=O)c3ccccc3N2)c1 (centres undefined) | 3 (≈ 11.8 µM) | > 20 | 5.6 | 1.5 (≈ 5.9 µM) | > 20 | 3 (≈ 11.8 µM) | > 20 | > 20 | 1.2 (≈ 4.72 µM) |  | > 20 | 1 (≈ 3.93 µM) | 
22 | COc1ccc(C2NC(=O)c3ccccc3N2)cc1OC (centres undefined) | > 20 | 20 (≈ 70.3 µM) | > 40 | > 20 | > 20 | > 20 | > 20 | > 20 | 16 (≈ 56.3 µM) | inactive |  |  | Inhibition (KB [1]): 28%; Inhibition (HOS [3]): 24%; Inhibition (PC-3 [5]): 30%
23 | COc1ccc(OC)c(-c2nc(O)c3ccccc3n2)c1 | > 20 | > 20 |  | > 20 | > 20 | > 20 | > 20 | > 20 | > 20 | inactive |  | > 20 | 
24 | COc1cccc(-c2nc(O)c3cc(N(C)C)ccc3n2)c1 | 10 (≈ 33.9 µM) | 0.85 (≈ 2.88 µM) |  |  | > 20 | 14 (≈ 47.4 µM) | 19 (≈ 64.3 µM) | 15 (≈ 50.8 µM) | 0.42 (≈ 1.42 µM) |  | > 20 | 0.49 (≈ 1.66 µM) | 
25 | COc1cccc(-c2cc(O)c3cc(N4CCCC4)ccc3n2)c1 |  |  | 0.32 |  |  |  |  |  |  |  |  |  | 
26 | COc1ccc(-c2nc(O)c3ccccc3n2)c(OC)c1 | > 20 | > 20 |  | > 20 | > 20 | > 20 | > 20 | > 20 | > 20 |  | > 20 |  | ED50 (1A9 [10]): inactive
27 | COc1ccc(C2NC(=O)c3ccccc3N2)cc1 (centres undefined) | > 20 | > 20 | > 40 | > 20 | > 20 | > 20 | > 20 | > 20 | > 20 | inactive |  | 20 (≈ 78.7 µM) | Inhibition (PC-3 [5]): 14%; Inhibition (KB [6]): 39%
28 | COc1ccc(-c2nc(O)c3ccccc3n2)cc1 | > 20 | > 20 |  | > 20 | > 20 | > 20 | > 20 | > 20 | > 20 |  |  | > 20 | ED50 (U-87 MG [17]): inactive
